Experimental data taken from ChEMBL document CHEMBL1132855, “Modeling directed design and biological evaluation of quinazolinones as non-peptidic growth hormone secretagogues” (Bioorg Med Chem Lett, 2000).

Species on record: Rattus norvegicus
Assay: The effective concentration against rat pituitary cell GH release assay
Type: functional
Conditions: Pituitary gland cell

IC50 | SMILES
630 nM | NCCCCCCNC(=O)Cn1c(CCc2ccccc2)nc2ccc(-c3ccccc3)cc2c1=O

These compounds were tested against Growth hormone secretagogue receptor type 1 (Homo sapiens, UniProt Q92847) (assay: Binding affinity for human growth hormone GH secretagogue (hGHsr) receptor). Conditions: not given.
Sequence of Growth hormone secretagogue receptor type 1 (Q92847 whole entry): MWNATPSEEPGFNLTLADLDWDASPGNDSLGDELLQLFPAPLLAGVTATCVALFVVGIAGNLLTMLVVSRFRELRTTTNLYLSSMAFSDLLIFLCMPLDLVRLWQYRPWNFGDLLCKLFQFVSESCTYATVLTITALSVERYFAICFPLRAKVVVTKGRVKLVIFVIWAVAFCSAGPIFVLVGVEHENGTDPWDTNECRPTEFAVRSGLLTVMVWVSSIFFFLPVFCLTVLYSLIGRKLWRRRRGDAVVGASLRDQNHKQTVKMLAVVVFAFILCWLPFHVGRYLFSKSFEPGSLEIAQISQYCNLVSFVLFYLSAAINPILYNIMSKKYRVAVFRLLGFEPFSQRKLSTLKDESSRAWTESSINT

IC50 | SMILES
1400 nM | NCCCCCNC(=O)Cn1c(-c2ccc3ccccc3c2)nc2ccc(Br)cc2c1=O
960 nM | NCCCCCCNC(=O)Cn1c(-c2ccc3ccccc3c2)nc2ccc(Br)cc2c1=O
340 nM | NCCCCCNC(=O)Cn1c(-c2ccc3ccccc3c2)nc2ccc(-c3ccccc3)cc2c1=O
3500 nM | COC(=O)C(CCCCN)NC(=O)Cn1c(-c2ccc3ccccc3c2)nc2ccc(Cl)cc2c1=O (stereo unspecified)
200 nM | NCCCCCCNC(=O)Cn1c(-c2ccc3ccccc3c2)nc2ccc(-c3ccccc3)cc2c1=O

More lines, now with the values behind:

SMILES | IC50
NCCCCCNC(=O)Cn1c(CCc2ccccc2)nc2ccc(-c3ccccc3)cc2c1=O | 48 nM
NCCCCCCNC(=O)Cn1c(CCc2ccccc2)nc2ccc(Br)cc2c1=O | 67 nM
NCCCCCNC(=O)Cn1c(CCc2ccccc2)nc2ccc(Br)cc2c1=O | 340 nM
NCCCCCCNC(=O)Cn1c(CCc2ccccc2)nc2ccc(-c3ccccc3)cc2c1=O | 16 nM
CN1N=C2CCN(C(=O)[C@@H](COCc3ccccc3)NC(=O)C(C)(C)N)C[C@@]2(Cc2ccccc2)C1=O [CAPROMORELIN] | 3000 nM
